# Reference: US20040157738A1, “Novel oxygen containing fused cyclic derivatives and herbicidal, desiccant and defoliate compositions containing them” (ISHIHARA SANGYO KAISHA, LTD., priority 2003, published 2004)
# Legend:
# Format in all cases: in vivo
# [1] = tested on: wheat (Triticum aestivum L.), TRZAX; assay: Test Example 2: post-emergence (foliage treatment) herbicidal activity (growth controlling degree); details: 2.8 leaf stage
# Outline: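 Herbicidal effect is rated by eye as growth control from 0 (like untreated plants) to 100 (plants killed). Compound, formulated as wettable powder or emulsifiable concentrate, is applied post-emergence to foliage in water at 500 L/ha with 0.1%(v/v) spreader.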
# [2] = tested on: soybean (Glycine max Merr.): GLXMA; assay: Test Example 1: pre-emergence herbicidal activity (growth controlling degree); details: 20th to 21st day after application
# Description: (§1) Upland field soil was put into a 1/170,000 ha pot, and seeds of various plants [1. barnyardgrass (Echinochloa crus-galli L.): ECHCC, 2. crabgrass (Digitaria sanguinalis L.): DIGSA, 3. green foxtail (Setaria viridis L.): SETVI, 4. redroot pigweed (Amaranthus retroflexus L.): AMARE, 5. prickly sida (Sida spinosa L.): SIDSP, 6. velvetleaf (Abutilon theophrasti): ABUTH, 7. common cocklebur (Xanthium strumarium L.): XANST, 8. rice (Oryza sativa L.): ORYSA, 9. wheat (Triticum aestivum L.): TRZAX, 10. corn (Zea mays L.): ZEAMX, 11. soybean (Glycine max Merr.): GLXMA] were sown. Then, one day after the sowing, a wettable powder or emulsifiable concentrate having the compound of the present invention formulated in accordance with a usual formulation method, was weighed so that the active ingredient would be a predetermined amount, and diluted with water in an amount of 500 L/ha. The herbicide adjusted was applied by a small size sprayer for pre-emergence treatment. On the 20th to 21st day after the application of the herbicide, the growth of the respective plants was visually observed, and the herbicidal effects were evaluated by growth controlling degrees (%) ranging from 0 (equivalent to the untreated control) to 100 (complete kill), whereby the results shown in Table 11, were obtained. Compound Nos. in Table 11 correspond to Compound Nos. in Table 1 to 7 given hereinbefore.
# [3] = tested on: common cocklebur (Xanthium strumarium L.): XANST; assay: as above; details: 20th to 21st day after application
# Description: as §1
# [4] = tested on: prickly sida (Sida spinosa L.): SIDSP; assay: as above; details: 20th to 21st day after application
# Description: as §1
# [5] = tested on: crabgrass (Digitaria sanguinalis L.): DIGSA; assay: as above; details: 20th to 21st day after application
# Description: as §1
# [6] = tested on: green foxtail (Setaria viridis L.): SETVI; assay: as above; details: 20th to 21st day after application
# Description: as §1
# [7] = tested on: rice (Oryza sativa L.): ORYSA; assay: as above; details: 20th to 21st day after application
# Description: as §1
# [8] = tested on: redroot pigweed (Amaranthus retroflexus L.): AMARE; assay: as above; details: 20th to 21st day after application
# Description: as §1
# [9] = tested on: velvetleaf (Abutilon theophrasti): ABUTH; assay: as above; details: 20th to 21st day after application
# Description: as §1
# [10] = tested on: corn (Zea mays L.): ZEAMX; assay: as above; details: 20th to 21st day after application
# Description: as §1
# [11] = tested on: barnyardgrass (Echinochloa crus-galli L.): ECHCC; assay: as above; details: 20th to 21st day after application
# Description: as §1
# [12] = tested on: wheat (Triticum aestivum L.): TRZAX; assay: as above; details: 20th to 21st day after application
# Description: as §1
compound,measurement,setting,value
"Cn1nc(-c2c(F)cc(Cl)c3c2CCCO3)c(Cl)c1C(F)(F)F [Compound 1-2, 4-chloro-3-(8-chloro-6-fluoro-3,4-dihydro-2H-1-benzopyran-5-yl)-1-methyl-5-(trifluoromethyl)-1H-pyrazole]","growth controlling degree, TRZAX",[1]; 63 g a.i./ha,30%
same,"growth controlling degree, GLXMA",[2]; 125 g a.i./ha,10%
same,"growth controlling degree, XANST",[3]; 125 g a.i./ha,100%
same,"growth controlling degree, SIDSP",[4]; 125 g a.i./ha,100%
same,"growth controlling degree, DIGSP",[5]; 125 g a.i./ha,100%
same,"growth controlling degree, SETVI",[6]; 125 g a.i./ha,100%
same,"growth controlling degree, ORYSA",[7]; 125 g a.i./ha,20%
same,"growth controlling degree, AMARE",[8]; 125 g a.i./ha,100%
same,"growth controlling degree, ABUTH",[9]; 125 g a.i./ha,100%
same,"growth controlling degree, ZEAMX",[10]; 125 g a.i./ha,10%
same,"growth controlling degree, ECHCG",[11]; 125 g a.i./ha,100%
CC1CCc2c(c(Cl)cc(F)c2-c2nn(C)c(OC(F)F)c2Cl)O1 (centres unmarked) [Compound 1-39],"growth controlling degree, GLXMA",[2]; 250 g a.i./ha,30%
same,"growth controlling degree, XANST",[3]; 250 g a.i./ha,100%
same,"growth controlling degree, SIDSP",[4]; 250 g a.i./ha,100%
same,"growth controlling degree, DIGSP",[5]; 250 g a.i./ha,100%
same,"growth controlling degree, SETVI",[6]; 250 g a.i./ha,100%
same,"growth controlling degree, ORYSA",[7]; 250 g a.i./ha,50%
same,"growth controlling degree, AMARE",[8]; 250 g a.i./ha,100%
same,"growth controlling degree, ABUTH",[9]; 250 g a.i./ha,100%
same,"growth controlling degree, ZEAMX",[10]; 250 g a.i./ha,70%
same,"growth controlling degree, ECHCG",[11]; 250 g a.i./ha,100%
"Cn1nc(-c2c(F)cc(Cl)c3c2CCCO3)c(Cl)c1OC(F)F [Compound 1-33, 4-chloro-3-(8-chloro-6-fluoro-3,4-dihydro-2H-1-benzopyran-5-yl)-5-(difluoromethoxy)-1-methyl-1H-pyrazole]","growth controlling degree, TRZAX",[1]; 63 g a.i./ha,98%
same,"growth controlling degree, GLXMA",[2]; 125 g a.i./ha,40%
same,"growth controlling degree, XANST",[3]; 125 g a.i./ha,70%
same,"growth controlling degree, TRZAX",[12]; 125 g a.i./ha,70%
same,"growth controlling degree, SIDSP",[4]; 125 g a.i./ha,100%
same,"growth controlling degree, DIGSP",[5]; 125 g a.i./ha,100%
same,"growth controlling degree, SETVI",[6]; 125 g a.i./ha,100%
same,"growth controlling degree, ORYSA",[7]; 125 g a.i./ha,70%
same,"growth controlling degree, AMARE",[8]; 125 g a.i./ha,100%
same,"growth controlling degree, ABUTH",[9]; 125 g a.i./ha,100%
same,"growth controlling degree, ZEAMX",[10]; 125 g a.i./ha,100%
same,"growth controlling degree, ECHCG",[11]; 125 g a.i./ha,100%
CC1CCc2c(c(Cl)cc(F)c2-c2nn3c(c2Cl)CCCC3)O1 (centres unmarked) [Compound 1-85],"growth controlling degree, GLXMA",[2]; 250 g a.i./ha,0%
same,"growth controlling degree, XANST",[3]; 250 g a.i./ha,0%
same,"growth controlling degree, SIDSP",[4]; 250 g a.i./ha,20%
same,"growth controlling degree, DIGSP",[5]; 250 g a.i./ha,60%
same,"growth controlling degree, SETVI",[6]; 250 g a.i./ha,80%
same,"growth controlling degree, ORYSA",[7]; 250 g a.i./ha,10%
same,"growth controlling degree, AMARE",[8]; 250 g a.i./ha,95%
same,"growth controlling degree, ABUTH",[9]; 250 g a.i./ha,30%
same,"growth controlling degree, ZEAMX",[10]; 250 g a.i./ha,10%
same,"growth controlling degree, ECHCG",[11]; 250 g a.i./ha,60%
"Fc1cc(Cl)c2c(c1-c1nn3c(c1Cl)CCCC3)CCCO2 [Compound 1-79, 3-chloro-2-(8-chloro-6-fluoro-3,4-dihydro-2H-1-benzopyran-5-yl)-4,5,6,7-tetrahydro-pyrazolo[1,5-a]pyridine]","growth controlling degree, GLXMA",[2]; 250 g a.i./ha,30%
same,"growth controlling degree, TRZAX",[12]; 250 g a.i./ha,10%
same,"growth controlling degree, SIDSP",[4]; 250 g a.i./ha,80%
same,"growth controlling degree, ORYSA",[7]; 250 g a.i./ha,30%
same,"growth controlling degree, AMARE",[8]; 250 g a.i./ha,100%
same,"growth controlling degree, ABUTH",[9]; 250 g a.i./ha,60%
same,"growth controlling degree, ZEAMX",[10]; 250 g a.i./ha,10%
same,"growth controlling degree, ECHCG",[11]; 250 g a.i./ha,100%
CCCCCC1CCc2c(c(Cl)cc(F)c2-c2nn(C)c(OC(F)F)c2Cl)O1 (centres unmarked) [Compound 1-101],"growth controlling degree, TRZAX",[1]; 31 g a.i./ha,30%
same,"growth controlling degree, GLXMA",[2]; 125 g a.i./ha,10%
same,"growth controlling degree, XANST",[3]; 125 g a.i./ha,30%
same,"growth controlling degree, TRZAX",[12]; 125 g a.i./ha,20%
same,"growth controlling degree, SIDSP",[4]; 125 g a.i./ha,80%
same,"growth controlling degree, DIGSP",[5]; 125 g a.i./ha,100%
same,"growth controlling degree, SETVI",[6]; 125 g a.i./ha,100%
same,"growth controlling degree, ORYSA",[7]; 125 g a.i./ha,30%
same,"growth controlling degree, AMARE",[8]; 125 g a.i./ha,100%
same,"growth controlling degree, ABUTH",[9]; 125 g a.i./ha,60%
same,"growth controlling degree, ZEAMX",[10]; 125 g a.i./ha,40%
same,"growth controlling degree, ECHCG",[11]; 125 g a.i./ha,80%
"Fc1cc(Cl)c2c(c1-c1ncc(C(F)(F)F)cc1Cl)CCCO2 [Compound 7-2, 3-chloro-2-(8-chloro-6-fluoro-3,4-dihydro-2H-1-benzopyran-5-yl)-5-(trifluoromethyl)-pyridine]","growth controlling degree, GLXMA",[2]; 250 g a.i./ha,50%
same,"growth controlling degree, XANST",[3]; 250 g a.i./ha,50%
same,"growth controlling degree, TRZAX",[12]; 250 g a.i./ha,50%
same,"growth controlling degree, SIDSP",[4]; 250 g a.i./ha,100%
same,"growth controlling degree, DIGSP",[5]; 250 g a.i./ha,100%
same,"growth controlling degree, SETVI",[6]; 250 g a.i./ha,100%
same,"growth controlling degree, ORYSA",[7]; 250 g a.i./ha,50%
same,"growth controlling degree, AMARE",[8]; 250 g a.i./ha,100%
same,"growth controlling degree, ABUTH",[9]; 250 g a.i./ha,100%
same,"growth controlling degree, ZEAMX",[10]; 250 g a.i./ha,60%
same,"growth controlling degree, ECHCG",[11]; 250 g a.i./ha,100%
Cn1nc(-c2c(F)cc(Cl)c3c2CCC(c2ccccc2)O3)c(Cl)c1OC(F)F (centres unmarked) [Compound 1-42],"growth controlling degree, GLXMA",[2]; 250 g a.i./ha,10%
same,"growth controlling degree, XANST",[3]; 250 g a.i./ha,0%
same,"growth controlling degree, TRZAX",[12]; 250 g a.i./ha,0%
same,"growth controlling degree, SIDSP",[4]; 250 g a.i./ha,80%
same,"growth controlling degree, DIGSP",[5]; 250 g a.i./ha,100%
same,"growth controlling degree, SETVI",[6]; 250 g a.i./ha,100%
same,"growth controlling degree, ORYSA",[7]; 250 g a.i./ha,40%
same,"growth controlling degree, AMARE",[8]; 250 g a.i./ha,100%
same,"growth controlling degree, ABUTH",[9]; 250 g a.i./ha,50%
same,"growth controlling degree, ZEAMX",[10]; 250 g a.i./ha,10%
same,"growth controlling degree, ECHCG",[11]; 250 g a.i./ha,100%
CC1CCc2c(c(Cl)cc(F)c2-c2nn(C)c(C(F)(F)F)c2Cl)O1 (centres unmarked) [Compound 1-8],"growth controlling degree, GLXMA",[2]; 250 g a.i./ha,10%
same,"growth controlling degree, XANST",[3]; 250 g a.i./ha,10%
same,"growth controlling degree, SIDSP",[4]; 250 g a.i./ha,98%
same,"growth controlling degree, DIGSP",[5]; 250 g a.i./ha,98%
same,"growth controlling degree, SETVI",[6]; 250 g a.i./ha,95%
same,"growth controlling degree, ORYSA",[7]; 250 g a.i./ha,20%
same,"growth controlling degree, AMARE",[8]; 250 g a.i./ha,100%
same,"growth controlling degree, ABUTH",[9]; 250 g a.i./ha,100%
same,"growth controlling degree, ZEAMX",[10]; 250 g a.i./ha,10%
same,"growth controlling degree, ECHCG",[11]; 250 g a.i./ha,50%
